Experimental data reported in ChEMBL document CHEMBL5303304, “EUbOPEN Chemogenomics Library - IncuCyte” (2023).

Experiments:
Assay type in all cases: toxicity, cell-based
HEK-293T = assay: Incucyte cell viability with HEK293T; details: human, 10 µM, compound concentration 10 uM
Fibroblast = assay: Incucyte cell viability with human fibroblast; details: 10 µM, compound concentration 10 uM
U2OS = assay: Incucyte cell viability with U2OS; details: human, 10 µM, compound concentration 10 uM
Further: unitless GR value; below 1 slowed growth and below 0 cell loss.

Row | Structure (SMILES) | Growth Rate (HEK-293T; 6 h, replicate number 1) | Growth Rate (HEK-293T; 6 h, replicate number 2) | Growth Rate (HEK-293T; 12 h, replicate number 1) | Growth Rate (HEK-293T; 12 h, replicate number 2) | Growth Rate (HEK-293T; 18 h, replicate number 1) | Growth Rate (HEK-293T; 18 h, replicate number 2) | Growth Rate (HEK-293T; 24 h, replicate number 1) | Growth Rate (HEK-293T; 24 h, replicate number 2) | Growth Rate (Fibroblast; 6 h, replicate number 1) | Growth Rate (Fibroblast; 12 h, replicate number 1) | Growth Rate (Fibroblast; 18 h, replicate number 1) | Growth Rate (U2OS; 0 h, replicate number 1) | Growth Rate (U2OS; 0 h, replicate number 2) | Growth Rate (U2OS; 12 h, replicate number 1) | Growth Rate (Fibroblast; 6 h, replicate number 2) | Growth Rate (U2OS; 24 h, replicate number 2) | Growth Rate (HEK-293T; 0 h, replicate number 1) | Growth Rate (U2OS; 18 h, replicate number 1) | Growth Rate (U2OS; 24 h, replicate number 1) | Growth Rate (HEK-293T; 0 h, replicate number 2) | further results
1 | Cc1nc2c([nH]1)c(=O)n(C)c(=O)n2Cc1ccco1 [FURAFYLLINE] | 0.19 | 0.63 | 0.18 | 0.76 | 0.7 | 0.82 | 0.87 | 0.88 | 0.42 | -1 | 0.5 | -0.64 | -0.96 | 0.95 |  |  |  |  |  |  | Growth Rate (Fibroblast; 0 h, replicate number 2): -0.99; Growth Rate (Fibroblast; 24 h, replicate number 1): 0.65; Growth Rate (U2OS; 6 h, replicate number 2): 0.59; Growth Rate (U2OS; 18 h, replicate number 2): 1
2 | COc1ccc(CCN(C)CCCC(C#N)(c2cc(OC)c(OC)c(OC)c2)C(C)C)cc1OC.Cl (centres undefined) [GALLOPAMIL HYDROCHLORIDE] | 0.31 |  | 0.9 | 0.97 |  | 0.94 |  | 0.94 | -0.5 | 0.03 |  |  | -0.88 |  | 0.16 | 1 |  |  |  |  | Growth Rate (Fibroblast; 0 h, replicate number 1): -0.26; Growth Rate (Fibroblast; 12 h, replicate number 2): 0.12; Growth Rate (Fibroblast; 18 h, replicate number 2): 0.41; Growth Rate (Fibroblast; 24 h, replicate number 2): 0.73
3 | Cc1cccc(-c2nn3c(c2-c2ccnc4ccc(C(N)=O)cc24)CCC3)n1 [GALUNISERTIB] |  | 0.64 |  | 0.74 |  | 0.73 |  | 0.8 |  |  |  | -0.43 | 0.64 | 0.66 |  | 0.76 | -0.5 | 0.75 | 0.93 |  | Growth Rate (Fibroblast; 0 h, replicate number 2): -0.6; Growth Rate (U2OS; 6 h, replicate number 1): 0.57; Growth Rate (U2OS; 12 h, replicate number 2): 0.83; Growth Rate (U2OS; 18 h, replicate number 2): 0.87
4 | CN[C@@H](C)C(=O)N[C@H](C(=O)N1CCC[C@H]1C(=O)Nc1snnc1-c1ccccc1)C1CCCCC1 [GDC-0152] | 0.13 | -0.14 | -0.36 | 0.05 | -0.27 | 0.07 | -0.26 | 0.07 | -0.88 |  | 0.81 | 0.23 |  |  |  | 0.98 | 0.81 |  |  |  | Growth Rate (Fibroblast; 0 h, replicate number 1): -0.28; Growth Rate (Fibroblast; 0 h, replicate number 2): -0.71; Growth Rate (U2OS; 12 h, replicate number 2): 0.89; Growth Rate (U2OS; 18 h, replicate number 2): 0.98
5 | CN(C)CCCn1cc(C2=C(c3c[nH]c4ccccc34)C(=O)NC2=O)c2ccccc21 [GF-109203] |  |  |  | 0.81 |  | 0.99 |  | 0.98 | -0.72 | -1 |  | -0.01 |  |  |  | 0.82 | -0.26 | 0.94 | 0.8 | -0.46 | Growth Rate (Fibroblast; 0 h, replicate number 2): -0.49; Growth Rate (Fibroblast; 18 h, replicate number 2): 0.65; Growth Rate (Fibroblast; 24 h, replicate number 2): 0.41
6 | Cn1c2ccccc2c2c3c(c4c5ccccc5n(CCC#N)c4c21)CNC3=O [GO-6976] | 0.62 | 0.05 | 0.69 | -0.2 | 0.36 | -0.19 | 0.7 | -0.14 | -0.79 | -1 |  |  | -0.94 |  |  | 0.39 | -0.49 | 0.29 | 0.17 | -0.13 | Growth Rate (Fibroblast; 18 h, replicate number 2): 0.88; Growth Rate (Fibroblast; 24 h, replicate number 2): 0.48; Growth Rate (U2OS; 18 h, replicate number 2): 0.63
7 | CC(=O)Nc1c(F)cc(C(=O)N[C@H]2CC[C@H](O)CC2)cc1O[C@@H](C)c1ccccc1 [GSK046] |  | 0.69 |  | 0.74 | 0.95 |  | 0.71 | 0.83 | 0.63 | 0.75 | 0.6 | -0.56 | 0.83 | 0.72 | 0.19 | 0.84 | 0.58 | 0.79 | 0.83 |  | Growth Rate (Fibroblast; 0 h, replicate number 2): 0.44; Growth Rate (Fibroblast; 12 h, replicate number 2): 0.74; Growth Rate (Fibroblast; 18 h, replicate number 2): 0.93; Growth Rate (Fibroblast; 24 h, replicate number 1): 0.71; Growth Rate (Fibroblast; 24 h, replicate number 2): 1; Growth Rate (U2OS; 6 h, replicate number 1): -0.86; Growth Rate (U2OS; 6 h, replicate number 2): 0.86; Growth Rate (U2OS; 12 h, replicate number 2): 0.94; Growth Rate (U2OS; 18 h, replicate number 2): 0.97
8 | CNC(=O)c1cc(C(=O)NC2CC2)cn(Cc2ccccc2)c1=O [GSK620] |  | 0.74 |  | 0.76 |  | 0.99 | 0.93 | 0.8 |  |  |  | -0.46 |  | 0.69 | 0.25 |  | -0.72 | 0.66 | 0.88 | 0.91 | Growth Rate (Fibroblast; 0 h, replicate number 1): 0.38; Growth Rate (U2OS; 6 h, replicate number 1): 0.54; Growth Rate (U2OS; 6 h, replicate number 2): 0.92
9 | COCc1nc2cnc3cc(-c4c(C)noc4C)c(OC[C@H]4CCNC4)cc3c2n1[C@H](C)c1ccccc1 [GSK778] |  |  |  |  |  |  |  |  | 0.26 | 0.63 | 0.73 | 0.09 | -1 | -0.64 | -0.01 | 0.7 |  |  | 1 | 0.24 | Growth Rate (Fibroblast; 12 h, replicate number 2): 0.65; Growth Rate (Fibroblast; 24 h, replicate number 1): 0.98; Growth Rate (U2OS; 6 h, replicate number 1): 0.78; Growth Rate (U2OS; 6 h, replicate number 2): -0.84; Growth Rate (U2OS; 12 h, replicate number 2): 0.73; Growth Rate (U2OS; 18 h, replicate number 2): 0.74
10 | Cc1cc2c(-c3ccco3)cnc(N[C@@H]3CCN(C)C[C@H]3C(=O)NC3CCCCC3)c2[nH]c1=O [GSK789] |  |  |  |  |  |  |  |  | 0.33 |  |  | -0.1 |  | 1 | 0 | 1 | 0.12 |  |  |  | Growth Rate (U2OS; 6 h, replicate number 1): 0.92; Growth Rate (U2OS; 6 h, replicate number 2): 0.89
11 | Cc1cc2c(-c3ccco3)cnc(N[C@H]3CCN(C)C[C@@H]3C(=O)NC3CCCCC3)c2[nH]c1=O [GSK791] |  |  |  |  |  |  |  |  | 0.66 | 0.82 |  | -0.05 |  | -0.81 | 0.72 |  |  |  |  | -0.74 | 
12 | CCc1ccc(N(CC(C)C)S(=O)(=O)c2ccc(OCC3CCOCC3)c(CO)c2)cc1 [GSK2981278] | 0.86 |  | 0.83 | 0.5 | 0.81 | 0.48 | 0.82 | 0.53 |  |  |  | 0.11 | 0.13 |  |  |  | -0.35 | 0.98 |  |  | Growth Rate (Fibroblast; 0 h, replicate number 2): 0.86; Growth Rate (Fibroblast; 18 h, replicate number 2): 0.7; Growth Rate (Fibroblast; 24 h, replicate number 1): 0.91; Growth Rate (Fibroblast; 24 h, replicate number 2): 0.85; Growth Rate (U2OS; 6 h, replicate number 1): 0.9; Growth Rate (U2OS; 6 h, replicate number 2): 0.96
13 | CC(C)(C)OC(=O)CN(Cc1ccc(Cl)cc1)Cc1ccc([N+](=O)[O-])s1 [GSK-4112] | 0.86 | 0.58 | 0.78 | 0.91 | 0.76 | 0.75 |  | 0.92 | 0.7 | 0.71 | 0.74 |  |  | 0.82 | -0.08 |  | 0.04 | 0.94 | 0.95 | 0.51 | Growth Rate (Fibroblast; 12 h, replicate number 2): 0.06; Growth Rate (Fibroblast; 18 h, replicate number 2): 0.06; Growth Rate (Fibroblast; 24 h, replicate number 1): 0.72; Growth Rate (Fibroblast; 24 h, replicate number 2): 0.19
14 | CCCCCCCN(CCc1ccc(SC(C)(C)C(=O)O)cc1)C(=O)Nc1ccc(F)cc1F [GSK-9578] |  | 0.66 |  | 0.73 |  | 0.5 |  | 0.55 | 0.88 | 0.69 | 0.7 |  |  | 0.86 | 0.55 |  | -0.27 |  |  | -0.91 | Growth Rate (Fibroblast; 0 h, replicate number 1): 0.58; Growth Rate (Fibroblast; 12 h, replicate number 2): 0.91; Growth Rate (Fibroblast; 24 h, replicate number 1): 0.88; Growth Rate (U2OS; 6 h, replicate number 1): 0
15 | C[C@@H](Oc1cc(-n2cnc3ccc(OC4CCN(C)CC4)cc32)sc1C(N)=O)c1ccccc1Cl [GSK-579289A] | 0.7 | 0.94 | 0.7 | 0.97 | 0.82 | 1 | 0.93 | 0.99 | 0.99 | 0.94 | 0.83 |  | 0.48 | 0.83 | 1 | 0.79 |  | 0.65 | 0.93 | 0.69 | Growth Rate (Fibroblast; 18 h, replicate number 2): 0.97; Growth Rate (U2OS; 12 h, replicate number 2): 0.84
